For assay [1], the system named is Human platelet-rich plasma (collagen-induced blood platelet aggregation). The experiment in a line: Collagen-induced blood platelet aggregation (aggregometer method of BORN). It is filed as cell-based. Particulars: 10 min; human citrated platelet-rich plasma; 37° C., 10 minutes incubation; collagen-fibrils; maximum aggregation velocity as test parameter. Here is the method:
Human platelet-rich plasma was obtained by centrifugation from citrated venous blood. The experiments were carried out with suspensions of the test substances in 0.9% sodium chloride. 0.18 ml of citrate plasma were treated with a 10 μl suspension of the test compounds and incubated at 37° C. for 10 minutes, whereupon the aggregation was initiated by the addition of 10 μl of a suspension of collagen-fibrils.

Assay [2] relates to Plasma glucose. The experiment in a line: Antihyperglycemic activity: plasma glucose concentration after oral glucose load in fasted rats. Format: in vivo. The following applies: percentages of the controls, rats fasted 24 hours, 0.3 mmol/kg p.o., glucose 1.6 g/kg orally 100 minutes later, plasma 20 minutes after glucose, averages. Here is the method: Gum arabic (12 control animals) or 0.3 mmol/kg p.o. of test substance (6 experimental animals) is administered to rats (fasted for 24 hours) and 100 minutes later a suspension of 1.6 g of glucose in 10 ml of 5 percent gum arabic is administered orally per kg body weight. The animals are killed 20 minutes after the glucose administration. Plasma is obtained from the heparinized mixed blood. The glucose concentration in the plasma is determined according to the hexokinase method.

One may read the pEC50 as −log10 of the EC50, conventionally taken in molar units.

pEC50: −log10 of the molar value. Structures can show the parent of a compound that is named as a salt.

In turn, `CC1(C)CSCC(C)(C)c2[nH]c(-c3ccc4c(c3)OCO4)nc21` [2-(3,4-Methylenedioxyphenyl)-4,5,7,8-tetrahydro-4,4,8,8-tetramethyl-1-H-thiepino[4,5-d]imidazole hydrochloride] had a pEC50 in assay [1] of 5.92.
With `CC1(C)CSCC(C)(C)c2[nH]c(-c3ccc(F)cc3)nc21` [2-(p-Fluorophenyl)-4,5,7,8-tetrahydro-4,4,8,8-tetramethyl-1-H-thiepino-[4,5-d]imidazole hydrochloride], in assay [2], the “Plasma glucose concentration (%)” value turned out to be 77%. The pEC50 in assay [1] is 5.33.
Consider `COc1ccc(-c2nc3c([nH]2)C(C)(C)CSCC3(C)C)cc1` [2-(p-Methoxyphenyl)-4,5,7,8-tetrahydro-4,4,8,8-tetramethyl-1-H-thiepino-[4,5-d]imidazole hydrochloride], for which the pEC50 in assay [1] was 5.38.
As for `CC1(C)CSCC(C)(C)c2[nH]c(-c3ccccc3)nc21` [2-Phenyl-4,5,7,8-tetrahydro-4,4,8,8-tetramethyl-1-H-thiepino[4,5-d]-imidazole hydrochloride], the “Plasma glucose concentration (%)” value in assay [2] (listed as 2-Phenyl-4,5,7,8-tetrahydro-4,4,8,8-tetramethyl-1-H-thiepino-8 4,5-d]-imidazole , hydrochloride) is recorded as 67%. This compound gave a pEC50 in assay [1] of 6.10.
`CC1(C)CSCC(C)(C)c2[nH]c(-c3ccccc3)nc21` [2-phenyl-4,5,7,8-tetrahydro-4,4,8,8-tetramethyl-1-H-thiepino[4,5-d]imidazole]: in assay [2], the “Plasma glucose concentration (%)” value is on record as 74%.
On to `CC1(C)CSCC(C)(C)c2[nH]c(-c3cccs3)nc21` [4,5,7,8-Tetrahydro-4,4,8,8-tetramethyl-2-(2-thienyl)-1-H-thiepino[4,5-d]-imidazole hydrochloride], for which the pEC50 in assay [1] is 4.71.
